Test results taken from US9102636B2, “Analgesic compounds, compositions, and uses thereof” (Galleon Pharmaceuticals, Inc., priority 2010, dated 2015).
Values joined by “and” are separate entries in the source; they are usually repeats but may differ in a detail not shown here. Equal values may be shown once. Where a name gives a salt, the structure may show the parent alone. One block for each compound: values may come before it.

Legend:
[1] = test system: Carrageenan-induced thermal hyperalgesia; assay: Carrageenan-induced thermal hyperalgesia (Hargreaves); type: in vivo, rat; settings: indomethacin 30 mg/kg p.o. prior to carrageenan; for Paw withdrawal latency: cut-off 40 s, individual animals
Method: (§1) The effect of Compound 2 in the rat carrageenan model of acute inflammatory pain was evaluated. The intraplantar carrageenan model of acute inflammatory pain in the rat results in behaviors similar to that observed in patients and has been widely used to assess novel pharmacological treatments (Whiteside et al., 2005, J. Pharmacol. Exp. Ther. 314:1234-1240). The objective of this study was to evaluate the ability of Compound 2 to reverse or prevent development of thermal hyperalgesia and edema in the rat carrageenan model of acute inflammatory pain. The positive control was indomethacin (Sigma, St. Louis), and the negative control was vehicle (0.5% methyl cellulose). […] The Hargreaves apparatus was obtained from Ugo Basile, Italy, and the lamba-carrageenan was obtained from Sigma, St. Louis. For this assay, paw withdrawal latency to a thermal stimulus was assessed using a radiant heat source (Ugo Basile, Italy) aimed at the plantar surface of the left hind paw (Hargreaves test). […] Paw volume was measured by displacement of water and assuming a tissue density equal to that of water. Baseline latencies were taken prior to carrageenan administration and re-assessed 4 h later. Compound 2 or vehicle was administered (10 and 30 mg/kg, p.o.) 3 hrs after carrageenan (curative) and behavior assessed 1 hr later. […] Indomethacin (positive control, 30 mg/kg p.o.) was administered prior to carrageenan and behavior assessed 4 hrs post-carrageenan. […] After induction of anesthesia, the injection site was prepared in a sterile manner and 50 μl of a 2% Jamba-carrageenan was injected. After injection, animals were weighed and allowed to recover before being returned to their home cages. Statistical significance was determined on untransformed data using a two-way analysis of variance (Graphpad Prism, NC). Significant main effects were analyzed further by subsequent Bonferronni post-hoc test. The level of significance was set at p<0.05. Data are shown as mean±S.E.M. (with an asterisk to denote significance as compared to vehicle treated controls).

[2] = test system: Carrageenan-induced edema; assay: Carrageenan-induced edema (paw volume); type: in vivo, rat; settings: indomethacin 30 mg/kg p.o. prior to carrageenan; for Paw volume: individual animals
Method: as §1, with “later.” for “later. Compound 2 or vehicle was administered (10 and 30 mg/kg, p.o.) 3 hrs after carrageenan (curative) and behavior assessed 1 hr later.”

SMILES: COC(=O)c1ccc(NC2=N[C@H](C(=O)O)CS2)c(O)c1 (as salt: HCl) [Compound 12, (R)-2-(2-Hydroxy-4-methoxycarbonylphenylamino)-thiazoline-4-carboxylic acid]
melting point: 118 to 120 °C

SMILES: COc1ccc2c(c1)c(CC(=O)O)c(C)n2C(=O)c1ccc(Cl)cc1 [Indo]
Paw withdrawal latency ([1]; 4 hrs post-carrageenan (second line)): 17 s and 35 s and 26 s and 28 s and 40 s (2×)
Paw withdrawal latency ([1]; baseline prior to carrageenan (first line)): 20 s and 40 s and 17 s and 32 s and 23 s and 24 s
Paw volume ([2]; 4 hr post-drug): 2.5 mL and 2.4 mL and 2.3 mL (2×) and 2.2 mL and 1.8 mL
Paw volume ([2]; Pre-Cg): 1.7 mL (2×) and 1.5 mL (2×) and 1.8 mL and 1.4 mL

SMILES: COc1ccc2c(c1)c(CC(=O)O)c(C)n2C(=O)c1ccc(Cl)cc1 [indomethacin, reference compound]
carrageenan-induced thermal hyperalgesia, positive control preemptive ([1]; rat, 4 hrs post-carrageenan): statistically significant prevention
carrageenan-induced edema, positive control preemptive ([2]; rat, 4 hrs post-carrageenan): statistically significant prevention

Next, values leading:

melting point: 109 to 111 °C
SMILES: O=C(O)[C@@H]1CSC(Nc2ccc(F)cc2O)=N1 (as salt: HCl) [Compound 6, (R)-2-(4-Fluoro-2-hydroxyphenylamino)-thiazoline-4-carboxylic acid]

melting point: 205 to 207 °C
SMILES: Cc1c(Cl)cc(NC2=N[C@H](C(=O)O)CS2)c(O)c1Cl (as salt: HCl) [Compound 8, (R)-2-(3,5-Dichloro-2-hydroxy-4-methylphenylamino)-thiazoline-4-carboxylic acid]
